According to ChEMBL document CHEMBL5356964, “Design, synthesis and anti-rheumatoid arthritis activity of target TLR4 inhibitors” (Bioorg Med Chem, 2024):
The source made the active and inactive calls. The calls are words filed in the database; no cut-off is given here.

test system: not listed separately; assay: Antiproliferative activity against rat Synovial cell assessed as inhibition of cell growth incubated for 48 hrs by CCK-8 assay; type: functional, cell-based; conditions: not given

Compound	IC50 [nM]
CN(Cc1cnc2nc(N)nc(N)c2n1)c1ccc(C(=O)N[C@@H](CCC(=O)O)C(=O)O)cc1 [METHOTREXATE]	2330
CC(=O)CC(=O)C1CC(C2=CCCCC2)CCC1=O (configuration not stated)	5430
CCC1CCC(=O)C(C(=O)CC(C)=O)C1 (configuration not stated)	5310
CCC(C)(C)C1CCC(=O)C(C(=O)CC(C)=O)C1 (configuration not stated)	10300
CC(=O)CC(=O)C1CC(N2C(=O)c3ccccc3C2=O)CCC1=O (configuration not stated)	5960
CC(=O)CC(=O)C1CC(=O)CCC1=O (configuration not stated)	6510
CC(=O)CC(=O)C1CC(C(=O)O)CCC1=O (configuration not stated)	5310
CC(=O)CC(=O)C1CC(c2ccc(O)cc2)CCC1=O (configuration not stated)	7940
CCCC1CCC(C2CCC(=O)C(C(=O)CC(C)=O)C2)CC1 (configuration not stated)	3510
CCCCCC1CCC(=O)C(C(=O)CC(C)=O)C1 (configuration not stated)	5080
CC(=O)CC(=O)C1CC(Cl)CCC1=O (configuration not stated)	2450
CC(=O)CC(=O)C1CC(NC(C)=O)CCC1=O (configuration not stated)	2610

test system: RAW264.7; assay: Antiproliferative activity against LPS-induced- mouse RAW264.7 cells assessed as inhibition of cell growth incubated for 24 hrs by CCK-8 assay; type: functional, cell-based; conditions: RAW264.7, 24 h

Compound	IC50 [nM]
CN(Cc1cnc2nc(N)nc(N)c2n1)c1ccc(C(=O)N[C@@H](CCC(=O)O)C(=O)O)cc1 [METHOTREXATE]	1230
CC(=O)CC(=O)C1CC(C2=CCCCC2)CCC1=O (configuration not stated)	2830
CCC1CCC(=O)C(C(=O)CC(C)=O)C1 (configuration not stated)	2680
CCC(C)(C)C1CCC(=O)C(C(=O)CC(C)=O)C1 (configuration not stated)	3900
CC(=O)CC(=O)C1CC(N2C(=O)c3ccccc3C2=O)CCC1=O (configuration not stated)	2660
CC(=O)CC(=O)C1CC(=O)CCC1=O (configuration not stated)	3630
CC(=O)CC(=O)C1CC(C(=O)O)CCC1=O (configuration not stated)	2710
CC(=O)CC(=O)C1CC(c2ccc(O)cc2)CCC1=O (configuration not stated)	3210
CCCC1CCC(C2CCC(=O)C(C(=O)CC(C)=O)C2)CC1 (configuration not stated)	1710
CCCCCC1CCC(=O)C(C(=O)CC(C)=O)C1 (configuration not stated)	2450
CC(=O)CC(=O)C1CC(Cl)CCC1=O (configuration not stated)	1320
CC(=O)CC(=O)C1CC(NC(C)=O)CCC1=O (configuration not stated)	1330

test system: RAW264.7; assay: Antiarthritic activity against LPS-induced mouse RAW264.7 cells assessed as reduction in TNF-alpha level at 1 uM incubated for 24 hrs (Rvb 653.3 +/- 70.1 pg/L); type: functional; conditions: not given

Compound	Activity [pg/L]
CN(Cc1cnc2nc(N)nc(N)c2n1)c1ccc(C(=O)N[C@@H](CCC(=O)O)C(=O)O)cc1 [METHOTREXATE]	235.3
CCCC1CCC(C2CCC(=O)C(C(=O)CC(C)=O)C2)CC1 (configuration not stated)	478.96
CC(=O)CC(=O)C1CC(Cl)CCC1=O (configuration not stated)	350.2
CC(=O)CC(=O)C1CC(NC(C)=O)CCC1=O (configuration not stated)	365.2

test system: RAW264.7; assay: Antiarthritic activity against LPS-induced mouse RAW264.7 cells assessed as reduction in IL-1beta level at 1 uM incubated for 24 hrs (Rvb 665.1 +/- 82.1 pg/L); type: functional; conditions: not given

Compound	Activity [pg/L]
CN(Cc1cnc2nc(N)nc(N)c2n1)c1ccc(C(=O)N[C@@H](CCC(=O)O)C(=O)O)cc1 [METHOTREXATE]	334.5
CCCC1CCC(C2CCC(=O)C(C(=O)CC(C)=O)C2)CC1 (configuration not stated)	545.9
CC(=O)CC(=O)C1CC(Cl)CCC1=O (configuration not stated)	385.1
CC(=O)CC(=O)C1CC(NC(C)=O)CCC1=O (configuration not stated)	407.2

test system: RAW264.7; assay: Antiarthritic activity against LPS-induced mouse RAW264.7 cells assessed as reduction in IL-6 level at 1 uM incubated for 24 hrs (Rvb 231.1 +/- 24.2 pg/L); type: functional; conditions: not given

Compound	Activity [pg/L]
CN(Cc1cnc2nc(N)nc(N)c2n1)c1ccc(C(=O)N[C@@H](CCC(=O)O)C(=O)O)cc1 [METHOTREXATE]	115.3
CCCC1CCC(C2CCC(=O)C(C(=O)CC(C)=O)C2)CC1 (configuration not stated)	180.7
CC(=O)CC(=O)C1CC(Cl)CCC1=O (configuration not stated)	133.5
CC(=O)CC(=O)C1CC(NC(C)=O)CCC1=O (configuration not stated)	158.9

molecular target: Toll-like receptor 4 (Homo sapiens, UniProt O00206); assay: Inhibition of TLR4 (unknown origin) using TMB as substrate incubated for 90 mins; conditions: not given
Sequence (O00206 whole entry): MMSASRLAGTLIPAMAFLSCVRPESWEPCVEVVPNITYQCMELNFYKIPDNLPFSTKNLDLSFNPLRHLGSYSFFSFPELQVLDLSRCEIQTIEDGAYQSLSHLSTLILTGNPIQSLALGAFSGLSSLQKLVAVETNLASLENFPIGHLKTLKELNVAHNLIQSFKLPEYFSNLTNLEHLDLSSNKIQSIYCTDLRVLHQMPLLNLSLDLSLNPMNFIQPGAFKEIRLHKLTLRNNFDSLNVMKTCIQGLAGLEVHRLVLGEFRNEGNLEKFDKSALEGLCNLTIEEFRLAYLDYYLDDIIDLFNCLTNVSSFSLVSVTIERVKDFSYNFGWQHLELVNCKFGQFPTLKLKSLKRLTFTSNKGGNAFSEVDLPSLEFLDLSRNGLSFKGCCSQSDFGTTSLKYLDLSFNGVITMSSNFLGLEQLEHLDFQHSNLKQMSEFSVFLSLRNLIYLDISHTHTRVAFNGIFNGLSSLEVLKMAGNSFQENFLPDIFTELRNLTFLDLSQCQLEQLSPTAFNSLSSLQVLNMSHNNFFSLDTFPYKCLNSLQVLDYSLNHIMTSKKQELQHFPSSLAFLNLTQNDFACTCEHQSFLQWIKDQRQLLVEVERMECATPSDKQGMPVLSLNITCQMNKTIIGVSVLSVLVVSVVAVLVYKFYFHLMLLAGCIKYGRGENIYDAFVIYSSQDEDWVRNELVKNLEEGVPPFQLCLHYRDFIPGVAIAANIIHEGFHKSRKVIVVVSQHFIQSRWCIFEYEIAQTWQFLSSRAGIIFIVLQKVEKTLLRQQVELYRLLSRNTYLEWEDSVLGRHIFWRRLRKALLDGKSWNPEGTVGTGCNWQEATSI

Compound	IC50 [nM]
CCCC1CCC(C2CCC(=O)C(C(=O)CC(C)=O)C2)CC1 (configuration not stated)	1780
CC(=O)CC(=O)C1CC(Cl)CCC1=O (configuration not stated)	1120
CC(=O)CC(=O)C1CC(NC(C)=O)CCC1=O (configuration not stated)	1210

test system: RAW264.7; assay: Antiproliferative activity against LPS-induced- mouse RAW264.7 cells assessed as cell survival at 1 uM pretreated with compound for 24 hrs followed by LPS induction and measured after 24 hrs; type: functional, cell-based; conditions: time 48.0 hrs

Compound	Activity
CN(Cc1cnc2nc(N)nc(N)c2n1)c1ccc(C(=O)N[C@@H](CCC(=O)O)C(=O)O)cc1 [METHOTREXATE]	Active

test system: RAW264.7; assay: Antiproliferative activity against LPS-induced- mouse RAW264.7 cells assessed as decrease in number of cells at 1 uM pretreated with compound for 24 hrs followed by LPS induction and measured after 24 hrs; type: functional, cell-based; conditions: time 48.0 hrs

Compound	Activity
CN(Cc1cnc2nc(N)nc(N)c2n1)c1ccc(C(=O)N[C@@H](CCC(=O)O)C(=O)O)cc1 [METHOTREXATE]	Active

test system: RAW264.7; assay: Antiarthritic activity against LPS-induced mouse RAW264.7 cells assessed as reduction in TNF-alpha level at 1 uM pretreated with compound for 24 hrs followed by LPS induction and measured after 24 hrs; type: functional, cell-based; conditions: time 48.0 hrs

Compound	Activity
CN(Cc1cnc2nc(N)nc(N)c2n1)c1ccc(C(=O)N[C@@H](CCC(=O)O)C(=O)O)cc1 [METHOTREXATE]	Active

test system: RAW264.7; assay: Antiarthritic activity against LPS-induced mouse RAW264.7 cells assessed as reduction in IL-1beta level at 1 uM pretreated with compound for 24 hrs followed by LPS induction and measured after 24 hrs; type: functional, cell-based; conditions: time 48.0 hrs

Compound	Activity
CN(Cc1cnc2nc(N)nc(N)c2n1)c1ccc(C(=O)N[C@@H](CCC(=O)O)C(=O)O)cc1 [METHOTREXATE]	Active

test system: RAW264.7; assay: Antiarthritic activity against LPS-induced mouse RAW264.7 cells assessed as reduction in IL-6 level at 1 uM pretreated with compound for 24 hrs followed by LPS induction and measured after 24 hrs; type: functional, cell-based; conditions: time 48.0 hrs

Compound	Activity
CN(Cc1cnc2nc(N)nc(N)c2n1)c1ccc(C(=O)N[C@@H](CCC(=O)O)C(=O)O)cc1 [METHOTREXATE]	Active

test system: RAW264.7; assay: Antiarthritic activity against LPS-induced mouse RAW264.7 cells assessed as downregulation of TLR4 expression at 1 uM preincubated with compound for 24 hrs followed by LPS-induction and measured after 24 hrs by immunofluorescence analysis; type: functional, cell-based; conditions: time 48.0 hrs

Compound	Activity
CN(Cc1cnc2nc(N)nc(N)c2n1)c1ccc(C(=O)N[C@@H](CCC(=O)O)C(=O)O)cc1 [METHOTREXATE]	Active

test system: RAW264.7; assay: Antiarthritic activity against LPS-induced mouse RAW264.7 cells assessed as downregulation of TNF-alpha expression at 1 uM preincubated with compound for 24 hrs followed by LPS-induction and measured after 24 hrs by immunofluorescence analysis; type: functional, cell-based; conditions: time 48.0 hrs

Compound	Activity
CN(Cc1cnc2nc(N)nc(N)c2n1)c1ccc(C(=O)N[C@@H](CCC(=O)O)C(=O)O)cc1 [METHOTREXATE]	Active

test system: RAW264.7; assay: Antiarthritic activity against LPS-induced mouse RAW264.7 cells assessed as downregulation of NF-kappaB expression at 1 uM preincubated with compound for 24 hrs followed by LPS-induction and measured after 24 hrs by immunofluorescence analysis; type: functional, cell-based; conditions: time 48.0 hrs

Compound	Activity
CN(Cc1cnc2nc(N)nc(N)c2n1)c1ccc(C(=O)N[C@@H](CCC(=O)O)C(=O)O)cc1 [METHOTREXATE]	Active

test system: RAW264.7; assay: Antiarthritic activity against LPS-induced mouse RAW264.7 cells assessed as downregulation of JAK2 expression at 1 uM preincubated with compound for 24 hrs followed by LPS-induction and measured after 24 hrs by immunofluorescence analysis; type: functional, cell-based; conditions: time 48.0 hrs

Compound	Activity
CN(Cc1cnc2nc(N)nc(N)c2n1)c1ccc(C(=O)N[C@@H](CCC(=O)O)C(=O)O)cc1 [METHOTREXATE]	inactive

test system: RAW264.7; assay: Antiarthritic activity against LPS-induced mouse RAW264.7 cells assessed as downregulation of STAT3 expression at 1 uM preincubated with compound for 24 hrs followed by LPS-induction and measured after 24 hrs by immunofluorescence analysis; type: functional, cell-based; conditions: time 48.0 hrs

Compound	Activity
CN(Cc1cnc2nc(N)nc(N)c2n1)c1ccc(C(=O)N[C@@H](CCC(=O)O)C(=O)O)cc1 [METHOTREXATE]	inactive

test system: RAW264.7; assay: Antiarthritic activity against LPS-induced mouse RAW264.7 cells assessed as downregulation of TLR4 expression at 1 uM preincubated with compound for 24 hrs followed by LPS-induction and measured after 24 hrs by Western blot analysis; type: functional, cell-based; conditions: time 48.0 hrs

Compound	Activity
CN(Cc1cnc2nc(N)nc(N)c2n1)c1ccc(C(=O)N[C@@H](CCC(=O)O)C(=O)O)cc1 [METHOTREXATE]	Active

test system: RAW264.7; assay: Antiarthritic activity against LPS-induced mouse RAW264.7 cells assessed as downregulation of TNF-alpha expression at 1 uM preincubated with compound for 24 hrs followed by LPS-induction and measured after 24 hrs by Western blot analysis; type: functional, cell-based; conditions: time 48.0 hrs

Compound	Activity
CN(Cc1cnc2nc(N)nc(N)c2n1)c1ccc(C(=O)N[C@@H](CCC(=O)O)C(=O)O)cc1 [METHOTREXATE]	Active

test system: RAW264.7; assay: Antiarthritic activity against LPS-induced mouse RAW264.7 cells assessed as downregulation of NF-kappaB expression at 1 uM preincubated with compound for 24 hrs followed by LPS-induction and measured after 24 hrs by Western blot analysis; type: functional, cell-based; conditions: time 48.0 hrs

Compound	Activity
CN(Cc1cnc2nc(N)nc(N)c2n1)c1ccc(C(=O)N[C@@H](CCC(=O)O)C(=O)O)cc1 [METHOTREXATE]	Active

test system: RAW264.7; assay: Antiarthritic activity against LPS-induced mouse RAW264.7 cells assessed as downregulation of TLR4 mRNA expression at 1 uM preincubated with compound for 24 hrs followed by LPS-induction and measured after 24 hrs by RT-PCR analysis; type: functional, cell-based; conditions: time 48.0 hrs

Compound	Activity
CN(Cc1cnc2nc(N)nc(N)c2n1)c1ccc(C(=O)N[C@@H](CCC(=O)O)C(=O)O)cc1 [METHOTREXATE]	Active

test system: RAW264.7; assay: Antiarthritic activity against LPS-induced mouse RAW264.7 cells assessed as downregulation of TNF-alpha mRNA expression at 1 uM preincubated with compound for 24 hrs followed by LPS-induction and measured after 24 hrs by RT-PCR analysis; type: functional, cell-based; conditions: time 48.0 hrs

Compound	Activity
CN(Cc1cnc2nc(N)nc(N)c2n1)c1ccc(C(=O)N[C@@H](CCC(=O)O)C(=O)O)cc1 [METHOTREXATE]	Active

test system: RAW264.7; assay: Antiarthritic activity against LPS-induced mouse RAW264.7 cells assessed as downregulation of NF-kappaB mRNA expression at 1 uM preincubated with compound for 24 hrs followed by LPS-induction and measured after 24 hrs by RT-PCR analysis; type: functional, cell-based; conditions: time 48.0 hrs

Compound	Activity
CN(Cc1cnc2nc(N)nc(N)c2n1)c1ccc(C(=O)N[C@@H](CCC(=O)O)C(=O)O)cc1 [METHOTREXATE]	Active

test system: RAW264.7; assay: Antiarthritic activity against LPS-induced mouse RAW264.7 cells assessed as downregulation of JAK2 mRNA expression at 1 uM preincubated with compound for 24 hrs followed by LPS-induction and measured after 24 hrs by RT-PCR analysis; type: functional, cell-based; conditions: time 48.0 hrs

Compound	Activity
CN(Cc1cnc2nc(N)nc(N)c2n1)c1ccc(C(=O)N[C@@H](CCC(=O)O)C(=O)O)cc1 [METHOTREXATE]	inactive

test system: RAW264.7; assay: Antiarthritic activity against LPS-induced mouse RAW264.7 cells assessed as downregulation of STAT3 mRNA expression at 1 uM preincubated with compound for 24 hrs followed by LPS-induction and measured after 24 hrs by RT-PCR analysis; type: functional, cell-based; conditions: time 48.0 hrs

Compound	Activity
CN(Cc1cnc2nc(N)nc(N)c2n1)c1ccc(C(=O)N[C@@H](CCC(=O)O)C(=O)O)cc1 [METHOTREXATE]	inactive
